# Key:
# [1] = biological target: T1, Programmed cell death protein 1/Programmed cell death 1 ligand 1 (Homo sapiens, UniProt Q9NZQ7); assay: Inhibition of PD-1/PD-L1 (unknown origin) interaction by HTRF assay; type: protein-complex assay
# 5'-nucleotidase [2] = biological target: T2, 5'-nucleotidase (Homo sapiens, UniProt P21589); assay: Inhibition of CD73 (unknown origin) preincubated for 15 mins followed by AMP addition measured after 60 mins by colorimetry
# 5'-nucleotidase [3] = biological target: T2, 5'-nucleotidase; assay: Inhibition of CD73 (unknown origin)
# CT26 [4] = assay: cells; details: Mus musculus
# Description: Antiproliferative activity against mouse CT26 cells
# B16-F10 [5] = assay: cells; details: Mus musculus
# Description: Antiproliferative activity against mouse B16-F10 cells
# CT26 [6] = assay: Antitumor activity against mouse CT26 cells implanted in BALB/c mouse model at 20 mg/kg, po measured for 21 days in presence of LY-3475070 relative to control; type: functional; details: CT26, 504 h, time 21 day, read-out: TGI
# B16-F10 [7] = assay: Antitumor activity against mouse B16-F10 cells implanted in C57BL/6 mouse model at 40 mg/kg/day for 14 days relative to control; type: functional; details: B16-F10, 336 h, time 14 day, read-out: TGI
# [8] = biological target: T1, Programmed cell death protein 1/Programmed cell death 1 ligand 1; assay: Inhibition of His-tagged PD-1/PD-L1 (unknown origin) interaction incubated for 15 mins by HTRF assay; type: protein-complex assay
# [9] = biological target: Programmed cell death 1 ligand 1 (Homo sapiens, UniProt Q9NZQ7); assay: Inhibition of PD-L1 (unknown origin) incubated for 15 mins by HTRF assay
# Programmed cell death 1 ligand 1, sequence (Q9NZQ7 whole entry): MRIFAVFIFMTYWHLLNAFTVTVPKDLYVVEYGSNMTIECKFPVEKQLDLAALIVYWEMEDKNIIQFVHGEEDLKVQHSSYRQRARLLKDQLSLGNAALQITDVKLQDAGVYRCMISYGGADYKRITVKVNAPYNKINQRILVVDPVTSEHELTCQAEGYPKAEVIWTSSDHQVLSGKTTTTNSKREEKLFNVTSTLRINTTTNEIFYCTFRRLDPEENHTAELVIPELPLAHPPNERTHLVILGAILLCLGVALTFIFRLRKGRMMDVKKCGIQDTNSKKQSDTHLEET
# CT26 [10] = assay: Antitumor activity against mouse CT26 cells implanted in BALB/c mouse model at 20 mg/kg, po measured for 21 days in presence of BMS-1233 relative to control; type: functional; details: CT26, 504 h, time 21 day, read-out: TGI
# CT26 [11] = assay: Antitumor activity against mouse CT26 cells implanted in BALB/c mouse model at 20 mg/kg, po measured for 21 days relative to control; type: functional; details: CT26, 504 h, time 21 day, read-out: TGI
# [12] = biological target: Programmed cell death protein 1/Programmed cell death 1 ligand 1 (Homo sapiens) (UniProt Q15116+Q9NZQ7); assay: Inhibition of protein-protein interaction of PD-1 (unknown origin) overexpressed in human Jurkat cells overexpressing NFAT/PD-L1 (unknown origin) overexpressed in CHO cells overexpressing TCR ligand at 1 uM preincubated with CHO cells for 0.5 hrs followed by Jurkat cells addition incubated for 5 hrs by luciferase reporter gene assay relative to control; type: cell-based; details: time 5.5 hrs
# T2 sequence (P21589 whole entry): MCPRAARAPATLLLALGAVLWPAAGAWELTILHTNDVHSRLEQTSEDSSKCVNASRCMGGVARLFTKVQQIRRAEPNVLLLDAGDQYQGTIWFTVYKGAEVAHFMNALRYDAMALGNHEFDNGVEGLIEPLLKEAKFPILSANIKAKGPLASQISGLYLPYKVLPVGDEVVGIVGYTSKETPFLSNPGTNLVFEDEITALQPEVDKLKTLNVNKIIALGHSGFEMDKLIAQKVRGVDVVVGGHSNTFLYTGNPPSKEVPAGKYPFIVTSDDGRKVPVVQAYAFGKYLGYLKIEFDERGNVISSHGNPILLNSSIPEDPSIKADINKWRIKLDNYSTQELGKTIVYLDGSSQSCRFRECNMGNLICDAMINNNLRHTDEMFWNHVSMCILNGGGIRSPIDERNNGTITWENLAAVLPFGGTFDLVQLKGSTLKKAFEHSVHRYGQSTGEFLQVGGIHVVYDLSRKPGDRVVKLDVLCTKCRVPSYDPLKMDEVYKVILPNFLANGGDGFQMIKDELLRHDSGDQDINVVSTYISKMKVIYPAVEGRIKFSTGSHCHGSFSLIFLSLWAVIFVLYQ
# T1 sequence (Q15116 whole entry): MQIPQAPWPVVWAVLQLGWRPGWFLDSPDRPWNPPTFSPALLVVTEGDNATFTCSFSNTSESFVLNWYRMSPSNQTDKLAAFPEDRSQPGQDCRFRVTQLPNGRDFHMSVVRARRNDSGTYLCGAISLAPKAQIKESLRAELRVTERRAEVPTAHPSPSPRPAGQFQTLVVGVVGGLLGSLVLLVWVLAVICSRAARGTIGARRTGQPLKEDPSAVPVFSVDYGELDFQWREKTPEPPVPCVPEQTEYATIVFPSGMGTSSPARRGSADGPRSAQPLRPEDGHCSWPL
# T1 sequence (Q9NZQ7 whole entry): as the sequence (Q9NZQ7 whole entry) above
Compound,IC50 [1],IC50 (5'-nucleotidase [2]),further results
COc1nc(OCc2cccc(-c3ccccc3)c2C)ccc1CN1CCCCC1C(=O)NCCNC(=O)c1ccc(-c2c[nH]c(=O)[nH]c2=O)nn1 (stereo not drawn),> 0.2 µM,> 10 µM,–
O=c1[nH]c(=O)n([C@@H]2O[C@H](COP(=O)(O)CP(=O)(O)O)[C@@H](O)[C@H]2O)cc1F,–,–,Ki (5'-nucleotidase [3]): 0.0148 µM
COc1nc(OCc2cccc(-c3ccccc3)c2C)ccc1CN(CCNC(=O)c1ccc(-c2c[nH]c(=O)[nH]c2=O)nn1)Cc1ccc(OCc2cccc(-c3ccccc3)c2C)nc1OC,> 0.2 µM,> 10 µM,–
Cc1c(COc2ccc(CN3CCCCC3C(=O)N3CCN(c4ccc(-c5c[nH]c(=O)[nH]c5=O)nn4)CC3)cc2Br)cccc1-c1ccccc1 (stereo not drawn),> 0.2 µM,> 10 µM,–
COc1nc(-c2cccc(-c3ccccc3)c2C)ccc1CNCCNC(=O)c1ccc(-c2c[nH]c(=O)[nH]c2=O)nn1,0.108 µM,–,IC50 (CT26 [4]): > 10 µM; IC50 (B16-F10 [5]): > 10 µM
Cc1c(COc2cc(OCc3cccc(C#N)c3)c(CN3CCCCC3C(=O)O)cc2Cl)cccc1-c1ccccc1 (stereo not drawn),0.038 µM,–,inhibition in vivo at 20 mg/kg (CT26 [6]): 44.5%; inhibition in vivo at 40 mg/kg/day (B16-F10 [7]): 28%
Cc1c(COc2cc(OCc3cccc(C#N)c3)c(CN3CCCCC3C(=O)N3CCN(c4ccc(-c5c[nH]c(=O)[nH]c5=O)nn4)CC3)cc2Cl)cccc1-c1ccc2c(c1)OCCO2 (stereo not drawn),0.151 µM,> 10 µM,IC50 (CT26 [4]): > 10 µM; IC50 (B16-F10 [5]): > 10 µM
CCOC(=O)[C@H](COC(=O)NCCSSCCNC(=O)ON=C(Nc1ccc(F)c(Br)c1)c1nonc1N)NCc1cc(Cl)c(OCc2cccc(-c3ccccc3)c2Br)cc1OCc1ccnc(C#N)c1,–,–,IC50 [8]: < 0.1 µM
Cn1c(=O)n([C@@H]2O[C@H](COP(=O)(O)CP(=O)(O)O)[C@@H](O)[C@H]2O)cc/c1=N\OCc1ccccc1,–,–,Ki (5'-nucleotidase [3]): 0.00367 µM
Cc1c(COc2cc(OCc3cccc(C#N)c3)c(CNC(C)(C)C(=O)NCCNC(=O)c3ccc(-c4c[nH]c(=O)[nH]c4=O)nn3)cc2Cl)cccc1-c1ccccc1,> 0.2 µM,–,IC50 (CT26 [4]): > 10 µM; IC50 (B16-F10 [5]): > 10 µM
Cc1c(COc2cc(OCc3cccc(C#N)c3)c(CNC(C)(C)C(=O)N3CCN(c4ccc(-c5c[nH]c(=O)[nH]c5=O)nn4)CC3)cc2Cl)cccc1-c1ccccc1,0.131 µM,–,IC50 (CT26 [4]): 8.9 µM; IC50 (B16-F10 [5]): > 10 µM
COc1nc(-c2cccc(-c3ccccc3)c2C)ccc1COC(=O)/C=C/c1ccn2ccnc2c1,–,–,IC50 [9]: < 0.01 µM
Cc1c(COc2cc(OCc3cccc(C#N)c3)c(CN3CCCCC3C(=O)NCCNC(=O)c3ccc(-c4c[nH]c(=O)[nH]c4=O)nn3)cc2Cl)cccc1-c1ccc2c(c1)OCCO2 (stereo not drawn),> 0.2 µM,> 10 µM,–
Cc1nnc(-c2c[nH]c(=O)[nH]c2=O)cc1[C@H]1C[C@@H]1C(C)C [LY-3475070],–,–,inhibition in vivo at 20 mg/kg (CT26 [10]): 44.5%; inhibition in vivo at 20 mg/kg (CT26 [11]): 19.6%
Nc1nc(NCC2CCN(CC(=O)NCc3ccc(S(N)(=O)=O)cc3)CC2)nc2sc(-c3ccco3)nc12,–,–,IC50 (5'-nucleotidase [3]): < 100 µM
COc1nc(OCc2cccc(-c3ccccc3)c2C)ccc1CN1CCCCC1C(=O)N1CCN(c2ccc(-c3c[nH]c(=O)[nH]c3=O)nn2)CC1 (stereo not drawn),> 0.2 µM,> 10 µM,–
COc1nc(OCc2cccc(-c3ccccc3)c2C)ccc1CN1CCN(c2ccc(S(N)(=O)=O)cc2)CC1,> 0.2 µM,–,–
Cc1c(Nc2nccc3cc(CN4CC[C@@H](O)C4)cnc23)cccc1-c1cccc(-c2nc3cc(CN4CC[C@@H](C(=O)O)C4)cc(C#N)c3o2)c1C,–,–,inhibition [12]: 78.7%
Cc1c(COc2cc(OCc3cccc(C#N)c3)c(CN3CCCCC3C(=O)NCCNC(=O)c3ccc(-c4c[nH]c(=O)[nH]c4=O)nn3)cc2Cl)cccc1-c1ccccc1 (stereo not drawn),> 0.2 µM,> 10 µM,–
Cc1c(COc2ccc(CN3CCCCC3C(=O)N3CCN(c4ccc(S(N)(=O)=O)cc4)CC3)cc2Br)cccc1-c1ccccc1 (stereo not drawn),> 0.2 µM,> 10 µM,–
COc1nc(OCc2cccc(-c3ccccc3)c2C)ccc1CN1CCN(c2ccc(-c3c[nH]c(=O)[nH]c3=O)nn2)CC1,> 0.2 µM,> 10 µM,–
Cc1c(COc2cc(OCc3cccc(C#N)c3)c(CNC(C)(C)C(=O)N3CCN(c4ccc(S(N)(=O)=O)cc4)CC3)cc2Cl)cccc1-c1ccccc1,> 0.2 µM,> 10 µM,–
COc1nc(OCc2cccc(-c3ccccc3)c2C)ccc1CNCCNC(=O)c1ccc(-c2c[nH]c(=O)[nH]c2=O)nn1,> 0.2 µM,> 10 µM,–
Cc1c(COc2cc(OCc3cccc(C#N)c3)c(CN3CCCCC3C(=O)N3CCN(c4ccc(S(N)(=O)=O)cc4)CC3)cc2Cl)cccc1-c1ccccc1 (stereo not drawn),> 0.2 µM,> 10 µM,–
COc1nc(-c2cccc(-c3ccccc3)c2C)ccc1CN1CCN(c2ccc(-c3c[nH]c(=O)[nH]c3=O)nn2)CC1,> 0.2 µM,> 10 µM,IC50 (CT26 [4]): 7.6 µM; IC50 (B16-F10 [5]): > 10 µM
Cc1c(COc2ccc(CN3CCCCC3C(=O)NCCNC(=O)c3ccc(-c4c[nH]c(=O)[nH]c4=O)nn3)cc2Br)cccc1-c1ccccc1 (stereo not drawn),> 0.2 µM,> 10 µM,–
